From EP0443568B1, “Fused thiophene derivatives, their production and use” (Takeda Chemical Industries, Ltd., priority 1990, dated 1991)

Assays:
[1] = biological target: T1, A-II-receptor (Bos taurus, UniProt P25104); experiment: Inhibition of binding of angiotensin-II to angiotensin receptor (radio receptor assay, 125I-A-II); conditions: membrane fraction of bovine adrenal cortex, room temperature, one hour, read-out: Radio Receptor Assay IC₅₀
T1 construct: An A-II-receptor was prepared from the membrane fraction of bovine adrenal cortex; from tissue; host or cells: bovine adrenal cortex membrane fraction
T1 sequence (P25104 1-359): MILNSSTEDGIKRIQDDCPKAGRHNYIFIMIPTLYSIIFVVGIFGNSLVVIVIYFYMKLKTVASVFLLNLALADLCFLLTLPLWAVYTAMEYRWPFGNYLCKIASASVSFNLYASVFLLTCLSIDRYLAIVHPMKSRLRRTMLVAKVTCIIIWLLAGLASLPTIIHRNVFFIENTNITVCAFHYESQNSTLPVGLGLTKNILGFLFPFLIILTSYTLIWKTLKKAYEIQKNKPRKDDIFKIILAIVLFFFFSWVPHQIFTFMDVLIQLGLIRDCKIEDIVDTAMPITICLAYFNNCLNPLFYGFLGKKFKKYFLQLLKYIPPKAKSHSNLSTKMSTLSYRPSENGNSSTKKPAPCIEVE
Procedure: An experiment of inhibition on the binding of angiotensin-II (A-II) to A-II-receptor was conducted by modifying the method of Douglas et al. [Endocrinology, 102, 685-696 (1978)]. An A-II-receptor was prepared from the membrane fraction of bovine adrenal cortex.
The compound of the present invention (10⁻⁹M to 3 × 10⁻⁵M ) and ¹²⁵I-A-II (1.85 kBq/50 µ l) were added to the receptor membrane fraction, and the mixture was incubated at room temperature for one hour. The receptor-bound and free ¹²⁵I-A-II were separated through a filter (Whatman GF/B filter), and the radioactivity of ¹²⁵I-A-II bound to the receptor was measured.

[2] = system: A-II-induced pressor action; experiment: Inhibitory effect on pressor action of A-II in rats after oral administration; assay type: in vivo, Jcl : SD rats; conditions: Rattus norvegicus, p.o., A-II 100 ng/kg intravenous, male SD rats, read-out: Pressor Response (30 mg/Kg, p.o.)
Procedure: Jcl : SD rats (9 week old, male) were used. On the day previous to the experiment, these animals were applied with cannulation into the femoral artery and vein under anesthesia with pentobarbital Na. The animals were fasted but allowed to access freely to drinking water until the experiment was started. Just on the day of conducting the experiment, the artery cannula was connected with a blood-pressure transducer, and the average blood pressure was recorded by means of polygraph. Before administration of the drug, the pressor action due to intravenous administration of A-II (100 ng/kg) as the control was measured. The drugs were orally administered, and then, at each point of the measurement, A-II was administered intravenously, and the pressor action was similarly measured. By comparing the pressor action before and after administration of the drug, the percent inhibition by the drug on A-II-induced pressor action was evaluated.

Compound	IC50 [1]	inhibition in vivo at 30 mg/kg [2]
CCc1cc2c(=O)c(C(=O)NCc3cccc(F)c3)cn(Cc3ccc(-c4ccccc4-c4nn[nH]n4)cc3)c2s1 [compound 24]	190 nM	≥ 70%
CCc1cc2c(=O)c(C(=O)NCc3ccccc3F)cn(Cc3ccc(-c4ccccc4-c4nn[nH]n4)cc3)c2s1 [compound 26]	210 nM	≥ 70%
CCc1cc2c(=O)c(C(=O)O)cn(Cc3ccc(-c4ccccc4-c4nn[nH]n4)cc3)c2s1 [compound 10]	40 nM	50 to 70%
CCCc1cc2c(=O)c(C(=O)OCC)cn(Cc3ccc(-c4ccccc4-c4nn[nH]n4)cc3)c2s1 [compound 6]	90 nM	
CCc1cc2c(=O)c(C(N)=O)cn(Cc3ccc(-c4ccccc4-c4nn[nH]n4)cc3)c2s1 [compound 13]	20 nM	
CCOC(=O)c1cn(Cc2ccc(-c3ccccc3-c3nn[nH]n3)cc2)c2sccc2c1=O [compound 4]	200 nM	
CCc1cc2c(=O)c(C(=O)NCc3ccccc3C)cn(Cc3ccc(-c4ccccc4-c4nn[nH]n4)cc3)c2s1 [compound 29]	120 nM	≥ 70%
CCc1cc2c(=O)c(C(=O)NCc3ccccc3OC)cn(Cc3ccc(-c4ccccc4-c4nn[nH]n4)cc3)c2s1 [compound 21]	250 nM	≥ 70%
CCOC(=O)c1cn(Cc2ccc(-c3ccccc3C(=O)O)cc2)c2sc(CC)cc2c1=O [compound 11]	210 nM	
CCc1cc2c(=O)c(C(=O)OCCOC)cn(Cc3ccc(-c4ccccc4-c4nn[nH]n4)cc3)c2s1 [compound 8]	10 nM	
CCc1cc2c(=O)c(C(=O)NCc3ccccc3)cn(Cc3ccc(-c4ccccc4-c4nn[nH]n4)cc3)c2s1 [compound 12]	60 nM	≥ 70%
CCc1cc2c(=O)c(C(=O)NCCO)cn(Cc3ccc(-c4ccccc4-c4nn[nH]n4)cc3)c2s1 [compound 15]	50 nM	
CCc1cc2c(=O)c(C(=O)NCc3ccc(C)cc3)cn(Cc3ccc(-c4ccccc4-c4nn[nH]n4)cc3)c2s1 [compound 28]	220 nM	50 to 70%
CCc1cc2c(=O)c(C(=O)Nc3ccccc3)cn(Cc3ccc(-c4ccccc4-c4nn[nH]n4)cc3)c2s1 [compound 16]	120 nM	≥ 70%
CCOC(=O)c1cn(Cc2ccc(-c3ccccc3-c3nn[nH]n3)cc2)c2sc(CC)cc2c1=O [compound 2]	50 nM	
CCc1cc2c(=O)c(C(=O)OCC(C)C)cn(Cc3ccc(-c4ccccc4-c4nn[nH]n4)cc3)c2s1 [compound 7]	170 nM	
CCc1cc2c(=O)c(C(=O)NC(C)c3ccccc3)cn(Cc3ccc(-c4ccccc4-c4nn[nH]n4)cc3)c2s1 (stereo not shown) [compound 25]	780 nM	≥ 70%
CCc1cc2c(=O)c(C(=O)NCc3ccc(F)cc3)cn(Cc3ccc(-c4ccccc4-c4nn[nH]n4)cc3)c2s1 [compound 23]	170 nM	≥ 70%
CCOC(=O)c1cn(Cc2ccc(-c3ccccc3-c3nn[nH]n3)cc2)c2sc(C)cc2c1=O [compound 5]	50 nM	
CCc1cc2c(=O)c(C(=O)NCC(C)C)cn(Cc3ccc(-c4ccccc4-c4nn[nH]n4)cc3)c2s1 [compound 14]	130 nM	
CCOC(=O)c1cn(Cc2ccc(-c3ccccc3-c3nn[nH]n3)cc2)c2sc(C#N)cc2c1=O [compound 20]	670 nM	
CCc1cc2c(=O)c(C(=O)NCc3ccccn3)cn(Cc3ccc(-c4ccccc4-c4nn[nH]n4)cc3)c2s1 [compound 30]	20 nM	≥ 70%
CCOC(=O)c1cn(Cc2ccc(-c3ccccc3-c3nn[nH]n3)cc2)c2sc(Br)cc2c1=O [compound 3]	70 nM	
